Results published in BindingDB's records for doi:10.1021/cb500355c (2015).

Target: RAC-alpha serine/threonine-protein kinase [E49C,C296S,C310S,C344S] (Homo sapiens, UniProt P31749, C296S/C310S/C344S/E49C)
Experiment: iFLik Assay
Details: pH 7.4
Method: Labeled Akt1 was diluted to 200 nM in the measurement buffer consisting of 50 mMHEPES pH 7.4, 200 mM NaCl, and 0.01% Triton-X 100. Dilution series of candidate compounds were prepared in DMSO at 21× the final desired concentration. Compounds (0.5 μL) were then mixed with labeled Akt1 (10 μL) in triplicate and with measurement buffer alone (background fluorescence control) in quadruplicate at 12different concentrations. The final compound concentrations ranged from 0.8 nM to 500 μM and each well contained 5% v/v DMSO after mixing. Plates were then covered with an adhesive plastic foil and incubated for 2 h at RT prior to measurement of emission intensities at fluorophore-specific wavelengths

RAC-alpha serine/threonine-protein kinase [E49C,C296S,C310S,C344S], sequence (P31749 whole entry E49C/C296S/C310S/C344S): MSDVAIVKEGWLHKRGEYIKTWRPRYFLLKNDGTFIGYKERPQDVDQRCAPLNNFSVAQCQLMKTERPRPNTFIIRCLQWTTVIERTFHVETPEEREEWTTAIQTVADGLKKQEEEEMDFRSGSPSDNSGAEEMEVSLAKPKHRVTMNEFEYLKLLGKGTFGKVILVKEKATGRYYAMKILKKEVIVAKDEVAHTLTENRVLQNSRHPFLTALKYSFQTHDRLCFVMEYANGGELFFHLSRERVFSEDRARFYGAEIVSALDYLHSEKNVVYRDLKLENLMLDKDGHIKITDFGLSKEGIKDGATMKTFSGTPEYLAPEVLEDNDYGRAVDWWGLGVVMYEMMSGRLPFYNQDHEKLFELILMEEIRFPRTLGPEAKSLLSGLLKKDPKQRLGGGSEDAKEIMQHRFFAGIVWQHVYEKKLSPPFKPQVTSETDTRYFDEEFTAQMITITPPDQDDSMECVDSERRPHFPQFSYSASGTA

Compound	Kd [µM]
Cc1ccc(-n2cc(-c3ccccc3)c3c(NCc4cccnc4)ncnc32)cc1 [7-(4-methylphenyl)-5-phenyl-N-(pyridin-3-ylmethyl)-7H-pyrrolo[2,3-d]pyrimidin-4-amine (8b)]	7.8
Cc1ccc(-n2cc(-c3ccccc3)c3c(NCc4cccs4)ncnc32)cc1Cl [7-(3-chloro-4-methylphenyl)-5-phenyl-N-(thiophen-2-ylmethyl)-7H-pyrrolo[2,3-d]pyrimidin-4-amine (8g)]	264
Cc1cccc(-n2cc(-c3ccccc3)c3c(NCc4cccs4)ncnc32)c1 [7-(3-methylphenyl)-5-phenyl-N-(thiophen-2-ylmethyl)-7H-pyrrolo[2,3-d]pyrimidin-4-amine (8e)]	99
COc1ccc(N2CCN(Cc3ccc(-c4nc5cc[nH]c(=O)c5cc4-c4ccccc4)cc3)CC2)cc1 [2-(4-((4-(4-Methoxyphenyl)piperazin-1-yl)methyl)phenyl)-3-phenyl-1,6-naphthyridin-5(6H)-one (7e)]	7.2
O=c1[nH]ccc2nc(-c3ccc(CN4CCC(n5c(=O)[nH]c6cc(Cl)ccc65)CC4)cc3)c(-c3ccccc3)cc12 [2-(4-((4-(5-Chloro-2-oxo-2,3-dihydro-1H-benzo[d]imidazol-1-yl)piperidin-1-yl)methyl)phenyl)-3-phenyl-1,6-naphthyridin-5(6H)-one (7b)]	0.15
Fc1ccc(-n2cc(-c3ccccc3)c3c(NCc4ccccn4)ncnc32)cc1 [7-(4-fluorophenyl)-5-phenyl-N-(pyridin-2-ylmethyl)-7H-pyrrolo[2,3-d]pyrimidin-4-amine (8c)]	20
O=c1[nH]ccc2nc(-c3ccc(CN4CCC(n5c(=O)[nH]c6ccccc65)CC4)cc3)c(-c3ccccc3)cc12 [2-(4-((4-(2-Oxo-2,3-dihydro-1H-benzo[d]imidazol-1-yl)piperidin-1-yl)methyl)phenyl)-3-phenyl-1,6-naphthyridin-5(6H)-one (7a)]	0.41
O=C(C1CCCO1)N1CCN(Cc2ccc(-c3nc4cc[nH]c(=O)c4cc3-c3ccccc3)cc2)CC1 (centres undefined) [3-Phenyl-2-(4-((4-(tetrahydrofuran-2-carbonyl)piperazin-1-yl)methyl)phenyl)-1,6-naphthyridin-5(6H)-one (7g)]	8

Further molecules by falling Kd, results first:

Kd [µM]	Compound
6	Cc1ccc(-n2cc(-c3ccccc3)c3c(NCc4ccccc4)ncnc32)cc1 [N-benzyl-7-(4-methylphenyl)-5-phenyl-7H-pyrrolo[2,3-d]pyrimidin-4-amine (8f)]
6	O=c1[nH]ccc2nc(-c3ccc(CN4CCc5ccccc5C4)cc3)c(-c3ccccc3)cc12 [2-(4-((3,4-Dihydroisoquinolin-2(1H)-yl)methyl)phenyl)-3-phenyl-1,6-naphthyridin-5(6H)-one (7c)]
2.2	Cc1ccc(-n2cc(-c3ccccc3)c3c(NCc4cccs4)ncnc32)cc1 [7-(4-methylphenyl)-5-phenyl-N-(thiophen-2-ylmethyl)-7H-pyrrolo[2,3-d]pyrimidin-4-amine (8a)]
2.2	c1ccc(-c2cn(-c3ccccc3)c3ncnc(NCc4cccs4)c23)cc1 [5,7-diphenyl-N-(thiophen-2-ylmethyl)-7H-pyrrolo[2,3-d]pyrimidin-4-amine (8d)]
1.1	O=c1[nH]ccc2nc(-c3ccc(CN4CCN(c5ncccn5)CC4)cc3)c(-c3ccccc3)cc12 [3-Phenyl-2-(4-((4-(pyrimidin-2-yl)piperazin-1-yl)methyl)phenyl)-1,6-naphthyridin-5(6H)-one (7f)]
0.9	COC(=O)C1CCN(Cc2ccc(-c3nc4cc[nH]c(=O)c4cc3-c3ccccc3)cc2)CC1 [Methyl 1-(4-(5-oxo-3-phenyl-5,6-dihydro-1,6-naphthyridin-2-yl)benzyl)piperidine-4-carboxylate (7d)]
